Here are results for 10 compounds from patent US7501422B2, “Prolinamide-tetrazole derivatives as NK3 receptor antagonists” (Hoffmann-La Roche Inc., priority 2007, dated 2009).

The target of the first assay is T1, recombinant human NK3 receptor (Homo sapiens, UniProt P29371).
T1 construct: expressed in transfected cells; host or cells: HEK293 cells, transient expression; membranes
T1 sequence (P29371 1-465): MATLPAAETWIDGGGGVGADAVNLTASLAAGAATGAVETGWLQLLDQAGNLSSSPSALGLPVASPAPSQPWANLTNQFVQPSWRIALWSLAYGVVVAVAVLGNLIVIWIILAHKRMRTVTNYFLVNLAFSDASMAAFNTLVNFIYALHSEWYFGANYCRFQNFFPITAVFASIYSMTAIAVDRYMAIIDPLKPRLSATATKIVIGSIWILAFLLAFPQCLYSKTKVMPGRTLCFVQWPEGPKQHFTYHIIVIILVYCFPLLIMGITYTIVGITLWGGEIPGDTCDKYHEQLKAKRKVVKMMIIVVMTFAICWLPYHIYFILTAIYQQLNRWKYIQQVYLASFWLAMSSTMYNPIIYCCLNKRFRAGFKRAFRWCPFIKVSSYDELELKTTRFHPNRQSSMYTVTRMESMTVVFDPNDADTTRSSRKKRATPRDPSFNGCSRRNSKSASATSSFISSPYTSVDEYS
As to the kind of experiment: [3H]SR142801 competition binding assay. Particulars: membranes from HEK293 cells transiently expressing recombinant human NK3 receptor; [3H]SR142801 radioligand; read-out: Data Ki (hNK-3 receptor affinity). How it is done: [^3H]SR142801 Competition Binding Assay
hNK3 receptor binding experiment were performed using [^3H]SR142801 (Catalog No. TRK1035, specific activity: 74.0 Ci/mmol, Amersham, G E Healthcare UK limited, Buckinghamshire, UK) and membrane isolated from HEK293 cells transiently expressing recombinant human NK3 receptor. After thawing, the membrane homogenates were centrifuged at 48,000×g for 10 min at 4° C., the pellets were resuspended in the 50 mM Tris-HCl, 4 mM MnCl2, 1 μM phosphoramidon, 0.1% BSA binding buffer at pH 7.4 to a final assay concentration of 5 μg protein/well. For inhibition experiments, membranes were incubated with [^3H]SR142801 at a concentration equal to KD value of radioligand and 10 concentrations of the inhibitory compound (0.0003-10 μM) (in a total reaction volume of 500 μl) for 75 min at room temperature (RT). At the end of the incubation, membranes were filtered onto unitfilter (96-well white microplate with bonded GF/C filter preincubated 1 h in 0.3% PEI+0.3% BSA, Packard BioScience, Meriden, Conn.) with a Filtermate 196 harvester (Packard BioScience) and washed 4 times with ice-cold 50 mM Tris-HCl, pH 7.4 buffer. Nonspecific binding was measured in the presence of 10 μM SB222200 for both radioligands. The radioactivity on the filter was counted (5 min) on a Packard Top-count microplate scintillation counter with quenching correction after addition of 45 μl of microscint 40 (Can berra Packard S. A., Zürich, Switzerland) and shaking for 1 h. Inhibition curves were fitted according to the Hill equation: y=100/(1+(x/IC50)^nH), where nH=slope factor using Excel-fit 4 software (Microsoft). IC50 values were derived from the inhibition curve and the affinity constant (Ki) values were calculated using the Cheng-Prussoff equation Ki=IC50/(1+[L]/KD) where [L] is the concentration of radioligand and KD is its dissociation constant at the receptor, derived from the saturation isotherm. All experiments were performed in duplicate and the mean±standard error (SEM) of the individual Ki values was calculated.
`N#Cc1ccccc1N1CCN(C(=O)[C@@H]2C[C@H](n3nnc(-c4ccc(F)cc4F)n3)CN2Cc2ccc(F)c(F)c2)CC1` [Example 9, 2-(4-{(2S,4S)-1-(3,4-Difluoro-benzyl)-4-[5-(2,4-difluoro-phenyl)-tetrazol-2-yl]-pyrrolidine-2-carbonyl}-piperazin-1-yl)-benzonitrile]: the inhibition constant (Ki) turned out to be 387 nM. Regarding `N#Cc1ccccc1N1CCN(C(=O)[C@@H]2C[C@H](n3nnc(-c4ccc(F)cc4F)n3)CN2Cc2cccc(F)c2)CC1` [Example 3, 2-{4-[(2S,4S)-4-[5-(2,4-Difluoro-phenyl)-tetrazol-2-yl]-1-(3-fluoro-benzyl)-pyrrolidine-2-carbonyl]-piperazin-1-yl}-benzonitrile], the Ki was found to be 320 nM. Turning to `N#Cc1ccccc1N1CCN(C(=O)[C@@H]2C[C@H](n3nnc(-c4ccc(F)cc4F)n3)CN2Cc2ccccc2Cl)CC1` [Example 5, 2-(4-{(2S,4S)-1-(2-Chloro-benzyl)-4-[5-(2,4-difluoro-phenyl)-tetrazol-2-yl]-pyrrolidine-2-carbonyl}-piperazin-1-yl)-benzonitrile], the Ki was 280 nM.

As for `N#Cc1ccccc1N1CCN(C(=O)[C@@H]2C[C@H](n3nnc(-c4ccc(F)cc4F)n3)CN2Cc2cccc(Cl)c2)CC1` [Example 6, 2-(4-{(2S,4S)-1-(3-Chloro-benzyl)-4-[5-(2,4-difluoro-phenyl)-tetrazol-2-yl]-pyrrolidine-2-carbonyl}-piperazin-1-yl)-benzonitrile], the Ki stood at 295 nM.

With `N#Cc1ccccc1N1CCN(C(=O)[C@@H]2C[C@H](n3nnc(-c4ccc(F)cc4F)n3)CN2Cc2ccccc2)CC1` [Example 1, 2-(4-{(2S,4S)-1-Benzyl-4-[5-(2,4-difluoro-phenyl)-tetrazol-2-yl]-pyrrolidine-2-carbonyl}-piperazin-1-yl)-benzonitrile], the Ki is 84 nM. Same read-out and setting: under `N#Cc1ccccc1N1CCN(C(=O)[C@@H]2C[C@H](n3nnc(-c4ccc(F)cc4F)n3)CN2Cc2ccccc2F)CC1` [Example 2, 2-{4-[(2S,4S)-4-[5-(2,4-Difluoro-phenyl)-tetrazol-2-yl]-1-(2-fluoro-benzyl)-pyrrolidine-2-carbonyl]-piperazin-1-yl}-benzonitrile] stands 23 nM.

As for `N#Cc1ccccc1N1CCN(C(=O)[C@@H]2C[C@H](n3nnc(-c4ccc(F)cc4F)n3)CN2Cc2ccc(Cl)cc2)CC1` [Example 7, 2-(4-{(2S,4S)-1-(4-Chloro-benzyl)-4-[5-(2,4-difluoro-phenyl)-tetrazol-2-yl]-pyrrolidine-2-carbonyl}-piperazin-1-yl)-benzonitrile], the inhibitory constant (Ki) amounted to 208 nM. On the same count and under the same terms, under `N#Cc1ccccc1N1CCN(C(=O)[C@@H]2C[C@H](n3nnc(-c4ccc(F)cc4F)n3)CN2CC2CCCCC2)CC1` [Example 8, 2-(4-{(2S,4S)-1-Cyclohexylmethyl-4-[5-(2,4-difluoro-phenyl)-tetrazol-2-yl]-pyrrolidine-2-carbonyl}-piperazin-1-yl)-benzonitrile] stands 696 nM; under `N#Cc1ccccc1N1CCN(C(=O)[C@@H]2C[C@H](n3nnc(-c4ccc(F)cc4F)n3)CN2Cc2ccc(F)cc2)CC1` [Example 4, 2-{4-[(2S,4S)-4-[5-(2,4-Difluoro-phenyl)-tetrazol-2-yl]-1-(4-fluoro-benzyl)-pyrrolidine-2-carbonyl]-piperazin-1-yl}-benzonitrile], 965 nM.

For another assay, the target named is T2, NK3 tachykinin receptor (Homo sapiens, UniProt P29371).
T2 sequence (P29371 1-465): T1 sequence (P29371 1-465)
Assay: not given
Particulars: phase II trial; negative symptoms (depression, anhedonia, social isolation, memory and attention deficits); cited from earlier work.
Turning to `CC(=O)N(C)C1(c2ccccc2)CCN(CCC[C@]2(c3ccc(Cl)c(Cl)c3)CCCN(C(=O)c3ccccc3)C2)CC1` [SR 142,801, Osanetant], the “activity in treatment of negative symptoms of schizophrenia” value was “inactive”.

The same assay, now with this note: phase II trial; positive symptoms (altered behavior, delusion, hallucinations, extreme emotions, excited motor activity, incoherent speech); cited from earlier work.
As for `CC(=O)N(C)C1(c2ccccc2)CCN(CCC[C@]2(c3ccc(Cl)c(Cl)c3)CCCN(C(=O)c3ccccc3)C2)CC1` [SR 142,801, Osanetant], the “activity on positive symptoms of schizophrenia” value was “active”.
